In this assay the test system is antibody 38C2. Description: antibody 38C2-catalyzed deuterium exchange (deuteration) of ketones and aldehydes in D2O, kinetics by GCMS or 1H-NMR. The class given is biochemical. As to conditions: for Km / kcat: 38C2-catalyzed deuteration, D2O, pD 7.4, 25° C.; for Km: Lineweaver-Burk analysis (GCMS); for kcat: per exchange of one hydrogen atom; for kcat/kun: rate enhancement over uncatalyzed background reaction (followed 5 months at 25° C.). As for the experimental part: Series of reactions were carried out in a 0.1 ml solution containing the appropriate concentration of the carbonyl substrate and antibody 38C2(1.33 μM in the case of cycloheptanone and heptanal, 2.67 μM in the case of 2-heptanone) which was previously dialyzed three times against 0.1 M NaCl in D2O. The reaction mixtures were kept at 25° C. for 10 minutes and then quenched with dichloromethane. The organic layer was separated and analyzed by GCMS (Chemical Ionization) where the different isotopic masses were monitored and integrated. All kinetic parameters are calculated per exchange of one deuterium atom. No background reactions could be detected under these conditions.
The issue of kinetic analyses of these catalytic reactions and structure determination of the deuterium labeled products is not trivial. The common chromatographic methods, such as HPLC, used to monitor protein-catalyzed organic reactions that are carried out at very low concentrations, are not applicable to isotope exchange reactions. Work at low concentrations, at the range of the antibody's Km, is required in order to establish the kinetic parameters of the antibody catalyzed reaction. Consequently, alternative methods such as mass spectrometry and NMR are required. For NMR spectroscopy, deuterated substrates were used and the exchange of ^2H and ^1H was followed by ^1H-NMR. This allows for monitoring the reaction in real time in the presence of antibody and buffer solution. The experiments were carried out in relatively high substrate concentrations, due to the limited sensitivity of the instrument. Most experiments employed deuterated acetonitrile as an internal standard that enables one to quantify the results. It will be appreciated that the employment of NMR techniques is valuable not only for kinetic studies but also for determining the product's stereochemistry as well as the regio, chemo- and enantioselectivity of the reaction.
All reactions were carried out in D2O under neutral conditions (pD 7.4) in the presence of catalytic amounts of the commercially available 38C2 antibody.
The exchange reaction was followed either by mass spectrometry (GCMS.) or by ^1H-NMR. The high sensitivity of the GCMS method with respect to substrate concentration allowed for determination of the kinetic parameters of these reactions (Km and kcat) using Lineweaver-Burk analysis. These measurements are presented in Table 1 hereinunder and FIG. 5.
Although all NMR measurements were carried out under substrate saturation conditions (allowing only for determination of Vmax and kcat, Table 1, above), as further detailed hereinunder, this method provided useful information about the regioselectivity of the reaction in the cases of non-symmetrical ketones and chemoselectivity with polyfunctional carbonyl compounds.
14. The rate of the uncatalyzed reaction was determined by averaging the results of five experiments for each substrate. All reaction mixtures, containing the appropriate substrate (200 μM) and NaCl (0.1 M) in D2O (0.1 mL), were monitored by GCMS-CI. Approximately 1-2% yield was observed after 5 months at 25° C.

As a reminder, the Km is the substrate concentration at which the rate is half of its maximum. The kcat is the maximal rate divided by the concentration of active sites. On to `CCCCCC(C)=O` [2-Heptanone, 3, 2-Heptanone], for which the Km was found to be 16 mM, the kcat is 3.5 min⁻¹ and the kcat/kun was 6.94 × 10^7.
As for `CC(=O)C(C)(C)C` [3,3-dimethylbutan-2-one], the “reactivity in the 38C2-catalyzed deuterium exchange reaction” value (data not shown) is reported as “absolute inertness”.
Turning to `CC(C)=O` [Acetone, 1, Acetone], the kcat stood at 2.6 min⁻¹.
Still for that read-out and setting: as for `CCC(C)=O` [Butanone, 2, Butanone], the figure is 3.1 min⁻¹.
Turning to `O=C1CCCCCC1` [Cycloheptanone, 10, Cycloheptanone], the Km was determined as 4.6 mM, the turnover number (kcat) came to 13.9 min⁻¹ and the kcat/kun is 1.1 × 10^8.
For `O=C1CCCCC1` [Cyclohexanone, 9, Cyclohexanone], in that order: 5.2 mM, 194.0 min⁻¹ and 5.9 × 10^8.
As for `O=C1CCCC1` [Cyclopentanone, 8, Cyclopentanone], the turnover number (kcat) was determined as 6.1 min⁻¹.
In the case of `CCCCCCCCCC=O` [Decanal, 6, Decanal], the Km was found to be 0.68 mM and the kcat is 4.0 min⁻¹.
In the case of `CCOC(=O)CCCC(C)=O` [Ethyl 5-oxohexanoate, 7, Ethyl 5-oxohexanoate], the turnover number (kcat) was determined as 0.8 min⁻¹.
Consider `CCCCCCC=O` [Heptanal, 5, Heptanal], for which the Km is 3.5 mM and the kcat amounted to 45.2 min⁻¹.
For the compound `CCCCC=O` [Valeraldehyde, 4, Valeraldehyde], the kcat was determined as 3.4 min⁻¹.
`CC(=O)CC(C)=O` [acetylacetone, reference compound]: the “inhibition of the 38C2-catalyzed deuterium exchange reaction” value (all cases studied by GCMS) is “effectively inhibited”.

(Values after US6440710B1, “Antibody-catalyzed deuteration, tritiation, dedeuteration or detritiation of carbonyl compounds” (The Scripps Research Institute, priority 1998, dated 2002).)
